Data as given in the supplement of paper PMC8671470.

Legend:
Settings in all cases: 72 h
HL-60 = assay: area under dose-response curve (viability, 1 nM-10 uM) (fraction (0-1)); higher = more sensitive
In short: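 In 384-well plates, the full library was rescreened in duplicate on HL-60 cells in RPMI 1640 with 10% FBS, at 1–10,000 nM in five tenfold concentrations, for 72 h at 37 °C, 5% CO2. Each run also held DMSO or 100 nM of one of three metabolic inhibitors. Viability was measured by CellTiter-Glo and normalised to DMSO wells and to wells with proteasome inhibitor, present at 10 μM. Any area under the curve comes from four-parameter log-logistic fitting with drc and PharmacoGx.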

[1] = test system: myeloid leukemia patient primary cells Pat.11; assay: cell viability (% survival relative to DMSO control); higher = less cytotoxic
In short: (§1)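 Thawed, Ficoll-purified mononuclear cells from AML or CML patients in RPMI 1640 with 10% FBS were seeded at 10,000 cells/well on 384-well plates pre-printed with 70 compounds at five tenfold concentrations, 1–10,000 nM, in duplicate, for 72 h. Viability was read by CellTiter-Glo and normalised to DMSO and 10 μM proteasome-inhibitor wells. Where given, area under the curve came from four-parameter log-logistic fits (drc, PharmacoGx R packages).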

[2] = test system: myeloid leukemia patient primary cells Pat.7; assay: as above
In short: as §1

[3] = test system: myeloid leukemia patient primary cells Pat.5; assay: as above
In short: as §1

[4] = co-treatment: GSK2194069 100 nM
[5] = co-treatment: pictilisib 100 nM

SMILES | area under dose-response curve (HL-60; co-treatment: AZD3965 100 nM) | area under dose-response curve (HL-60; co-treatment: DMSO vehicle) | area under dose-response curve (HL-60; [4]) | area under dose-response curve (HL-60; [5]) | cell viability ([1]; 1 nM) | cell viability ([1]; 10 nM) | cell viability ([1]; 100 nM) | cell viability ([1]; 1000 nM) | cell viability ([1]; 10000 nM) | cell viability ([2]; 1 nM) | cell viability ([2]; 10 nM) | cell viability ([2]; 100 nM) | cell viability ([2]; 1000 nM) | cell viability ([2]; 10000 nM) | cell viability ([3]; 1 nM) | cell viability ([3]; 10 nM) | cell viability ([3]; 100 nM) | cell viability ([3]; 1000 nM) | cell viability ([3]; 10000 nM)
CC12CCC(O)CC1CCC1C2CCC2(C)C(C3=CC(=O)OC3)CCC12O (stereo unspecified) [Digitoxigenin] | 0.372 | 0.376 | 0.386 | 0.374 | 99.8% | 94.1% | 94.8% | 31.9% | 9.33% | 94.8% | 91.8% | 67.9% | > 100% | > 100% | 56.2% | 38.7% | 33.1% | 0.265% | 4.43%
C1CCc2nnc(C34CC5CC(CC(C5)C3)C4)n2CC1 [MERCK-544] | < 0.0301 | < 0.0301 | < 0.0301 | < 0.0301 | – | – | – | – | – | – | – | – | – | – | – | – | – | – | –
Cc1c(-c2ccccc2)oc2c(C(=O)OCCN3CCCCC3)cccc2c1=O.Cl [Flavoxate] | < 0.0301 | < 0.0301 | < 0.0301 | < 0.0301 | – | – | – | – | – | – | – | – | – | – | – | – | – | – | –
CCCc1nn(C)c2c(O)nc(-c3cc(S(=O)(=O)N4CCN(C)CC4)ccc3OCC)nc12 [Sildenafil] | < 0.0301 | < 0.0301 | < 0.0301 | < 0.0301 | – | – | – | – | – | – | – | – | – | – | – | – | – | – | –
C[C@]12CC[C@H](O)CC1=CC[C@@H]1[C@@H]2CC[C@]2(C)C(c3cccnc3)=CC[C@@H]12 [Abiraterone] | < 0.0301 | < 0.0301 | < 0.0301 | < 0.0301 | – | – | – | – | – | – | – | – | – | – | – | – | – | – | –
C#Cc1cnc(O)nc1O [Eniluracil] | < 0.0301 | < 0.0301 | < 0.0301 | < 0.0301 | – | – | – | – | – | – | – | – | – | – | – | – | – | – | –
Cc1coc2c1C(=O)C(=O)c1c-2ccc2c(C)cccc12 [Tanshinone I] | < 0.0301 | < 0.0301 | < 0.0301 | < 0.0301 | – | – | – | – | – | – | – | – | – | – | – | – | – | – | –
c1ccc2c(c1)OCC(=C1NCCN1)O2 [Idazoxan] | < 0.0301 | < 0.0301 | < 0.0301 | < 0.0301 | – | – | – | – | – | – | – | – | – | – | – | – | – | – | –
Clc1ccc2c(c1Cl)CNCC2 | < 0.0301 | < 0.0301 | < 0.0301 | < 0.0301 | – | – | – | – | – | – | – | – | – | – | – | – | – | – | –
CCOC(=O)[C@H]1O[C@@H]1C(=O)N[C@@H](CC(C)C)C(=O)NCCC(C)C [Aloxistatin] | < 0.0301 | < 0.0301 | < 0.0301 | < 0.0301 | – | – | – | – | – | – | – | – | – | – | – | – | – | – | –
Cc1noc2c1-c1ccccc1C(c1ccc(Cl)cc1)=N[C@H]2CC(N)=O [CPI-0610] | 0.21 | 0.157 | 0.168 | 0.289 | > 100% | 93% | 93.6% | 54.3% | 51.8% | > 100% | 97.1% | 84.1% | 60.5% | 58% | 81.3% | 12.4% | 82.4% | 7.88% | 10.1%
Sc1ncnc2nc[nH]c12 [6-mercaptopurine] | 0.0762 | 0.0564 | 0.0946 | 0.0609 | > 100% | 98.2% | 97.6% | 97.9% | 98.1% | > 100% | 78.2% | 66.1% | 93.3% | 88.8% | 8.91% | 64.1% | 35.4% | 17.2% | 1.33%
O=c1c2ccccc2[se]n1-c1ccccc1 [Ebselen] | < 0.0301 | < 0.0301 | < 0.0301 | < 0.0301 | – | – | – | – | – | – | – | – | – | – | – | – | – | – | –
OCCN1CCN(CCCN2c3ccccc3Sc3ccc(Cl)cc32)CC1 [Perphenazine] | 0.0332 | < 0.0301 | 0.0329 | < 0.0301 | – | – | – | – | – | – | – | – | – | – | – | – | – | – | –
O=C(c1ccc(OCCN2CCCCC2)cc1)c1c(-c2ccc(O)cc2)sc2cc(O)ccc12 [Raloxifene] | < 0.0301 | < 0.0301 | < 0.0301 | < 0.0301 | – | – | – | – | – | – | – | – | – | – | – | – | – | – | –
Cc1ccc(S(=O)(=O)NC2c3ccccc3Oc3ccccc32)cc1 [AH-7614] | < 0.0301 | < 0.0301 | < 0.0301 | < 0.0301 | – | – | – | – | – | – | – | – | – | – | – | – | – | – | –
C[C@]12O[C@H](C[C@]1(O)CO)n1c3ccccc3c3c4c(c5c6ccccc6n2c5c31)CNC4=O [Lestaurtinib] | 0.381 | 0.293 | 0.335 | 0.452 | 96.4% | 74.7% | 41.8% | 56.9% | 1.92% | 88.3% | 62.3% | > 100% | 63.1% | < 0% | 22.6% | 2.27% | 10% | 11.2% | < 0%
O=C(O)CC[C@H](NC(=O)c1ccc([N+](=O)[O-])cc1)C(=O)O [(S)-2-(4-Nitrobenzamido)pentanedioic acid] | < 0.0301 | < 0.0301 | < 0.0301 | < 0.0301 | – | – | – | – | – | – | – | – | – | – | – | – | – | – | –
CC(/C=C1\SC(=S)N(CC(=O)O)C1=O)=C\c1ccccc1 [Epalrestat] | < 0.0301 | < 0.0301 | < 0.0301 | < 0.0301 | – | – | – | – | – | – | – | – | – | – | – | – | – | – | –
O=C(O)CCc1ccc(NCc2cccc(Oc3ccccc3)c2)cc1 [GW9508] | < 0.0301 | < 0.0301 | < 0.0301 | < 0.0301 | – | – | – | – | – | – | – | – | – | – | – | – | – | – | –
C=CCc1ccc2c(c1O)C(=O)c1ccccc1C2=O [R162] | < 0.0301 | < 0.0301 | < 0.0301 | < 0.0301 | – | – | – | – | – | – | – | – | – | – | – | – | – | – | –
C1CCC(C(CC2CCCCN2)C2CCCCC2)CC1.O=C(O)/C=C\C(=O)O (stereo unspecified) [Perhexiline] | 0.133 | 0.125 | 0.16 | 0.198 | – | – | – | – | – | – | – | – | – | – | – | – | – | – | –
Nc1ccn([C@@H]2O[C@H](CO)[C@@H](O)[C@@H]2O)c(=O)n1 [Cytarabine] | 0.242 | 0.214 | 0.216 | 0.329 | 95.7% | 93.6% | > 100% | 89.3% | 41.1% | > 100% | 50.7% | 59.9% | 12.8% | 4.95% | 84.9% | 1.18% | 24.7% | 1.18% | 2.01%
NC(=O)c1ncn([C@@H]2O[C@H](CO)[C@@H](O)[C@H]2O)n1 [Ribavirin] | < 0.0301 | < 0.0301 | < 0.0301 | < 0.0301 | – | – | – | – | – | – | – | – | – | – | – | – | – | – | –
